Measured values from US11602534B2, “Pyrimidine derivative kinase inhibitors” (HEFEI INSTITUTES OF PHYSICAL SCIENCE, CHINESE ACADEMY OF …, priority 2017, dated 2023).

Experiments:
Assay type in all cases: cell-based
TEL-PDGFRα-BaF3 = assay: Proliferation of TEL-PDGFRα-BaF3 cells, CCK8 cell viability assay; settings: Mus musculus, 72 hours, stably expressing PDGFRα kinase
Outline: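 Growth inhibition is expressed as GI50 in μM, with living-cell number estimated by reductive dehydrogenase activity in a CCK8 assay. The engineered BaF3 lines express TEL-fused human cKIT, PDGFRα or PDGFRβ and proliferate without IL-3 only through that kinase.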

Tel-RET-BaF3 = assay: Proliferation of Tel-RET-BaF3 cells, CCK8 cell viability assay; settings: Mus musculus, 72 hours, stably expressing RET kinase
FLT3-ITD-BaF3 = assay: Proliferation of FLT3-ITD-BaF3 cells, CCK8 cell viability assay; settings: Mus musculus, 72 hours, stably expressing FLT3/ITD
Outline: (§1)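 Murine BaF3 cells made IL-3-independent by retroviral transduction of human kinase domains fused to N-terminal TEL or TPR fragments; parental BaF3 included. Living cells quantified by CCK8 (dehydrogenase activity) read-out, giving GI50 in μM.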

P210-BaF3 = assay: Proliferation of P210-BaF3 cells, CCK8 cell viability assay; settings: Mus musculus, 72 hours, stably expressing BCR-ABL mutant activated kinase
Outline: as §1

Tel-FLT3-BaF3 = assay: Proliferation of Tel-FLT3-BaF3 cells, CCK8 cell viability assay; settings: Mus musculus, 72 hours, stably expressing FLT3 kinase
Outline: as §1

TEL-VEGFR2-BaF3 = assay: Proliferation of TEL-VEGFR2-BaF3 cells, CCK8 cell viability assay; settings: Mus musculus, 72 hours, stably expressing VEGFR2 kinase
Outline: as §1

P210/T315I-BaF3 = assay: Proliferation of P210/T315I-BaF3 cells, CCK8 cell viability assay; settings: Mus musculus, 72 hours, stably expressing BCR-ABL/T315I
Outline: as §1

Row | GI50 (TEL-PDGFRα-BaF3) | GI50 (Tel-RET-BaF3) | GI50 (FLT3-ITD-BaF3) | GI50 (P210-BaF3) | GI50 (Tel-FLT3-BaF3) | GI50 (TEL-VEGFR2-BaF3) | GI50 (P210/T315I-BaF3) | Structure (SMILES)
1 | 14 nM | > 10000 nM | 30 nM | > 10000 nM | 746 nM | 357 nM | – | CC(=O)Nc1cc(Oc2ccc(NC(=O)Cc3ccc(F)cc3F)cc2)ncn1 [Example 5, N-[4-(6-acetylamino-pyrimidin-4-yloxy)-phenyl]-2-(2,4-difluoro-phenyl)-acetamide]
2 | 7 nM | > 10000 nM | 32 nM | > 10000 nM | 249 nM | 1440 nM | > 10000 nM | CC(=O)Nc1cc(Oc2ccc(NC(=O)Cc3ccccc3C(F)(F)F)cc2)ncn1 [Example 135, N-[4-(6-acetylamino-pyrimidin-4-yloxy)-phenyl]-2-(2-trifluoromethyl-phenyl)-acetamide]
